Experiment: Chemical stability of drug in the aqueous suspension against autoclaving (recovery rate by HPLC)
Type: physicochemical
Protocol: Comparison of Chemical Stability of Drug in the Aqueous Suspension Against Autoclaving
The suspension of Example 1 was put into a 500 mL glass container with a screw cap and sterilized by autoclaving at 121 degrees C. for 20 minutes. Subsequently, after mixing the suspension in the glass container, the ciclesonide concentration was quantified by HPLC.
The recovery rate of ciclesonide after the autoclaving was calculated by taking the ciclesonide concentration before the autoclaving to be 100%. The recovery rates of budesonide and beclomethasone dipropionate after the autoclaving were calculated by the same method.

Compound | Degradation by autoclaving procedure
CC(C)C(=O)OCC(=O)[C@@]12O[C@H](C3CCCCC3)O[C@@H]1C[C@H]1[C@@H]3CCC4=CC(=O)C=C[C@]4(C)[C@H]3[C@@H](O)C[C@@]12C [ciclesonide, (11β,16α)-16,17-[cyclohexylmethylenebis(oxy)]-11-hydroxy-21-(2-methyl-1-oxopropoxy)pregna-1,4,-diene-3,20-dione] | not degraded
CCCC1O[C@@H]2C[C@H]3[C@@H]4CCC5=CC(=O)C=C[C@]5(C)[C@H]4[C@@H](O)C[C@]3(C)[C@]2(C(=O)CO)O1 (stereo partly drawn) [budesonide, 16α,17-[(1RS)-butylidene-bis(oxy)]-11β,21-dihydroxypregna-1,4-diene-3,20-dione] | degraded

Source: US20060166953A1, “Ciclesonide-containing sterile aqueous suspension” (priority 2002, published 2006)
